Experimental data taken from article PMC6681021 (Pharmaceutics, 2019).
“And” between values parts separate entries of the source, which are not always exact repeats. Identical values can stand only once.

Assays:
[1] = Pharmacokinetics after 1-min intravenous infusion of tofacitinib to rats; format: in vivo, Sprague-Dawley rats; conditions: for clearance / CL renal / MRT / half-life / Vd: Sprague-Dawley; for clearance / CL renal / MRT / half-life / Vd / AUC: rat; for Dose-normalized AUC: normalized to 10 mg/kg; for half-life: read-out: Terminal half-life; for Vd: read-out: Vss; for AUC: 1-min iv infusion, male Sprague-Dawley rats
Method: The pretreatment and surgical procedures for oral and intravenous administration were similar to those described previously. For oral administration, the rats were fasted overnight with free access to water. The rats were anesthetized with ketamine (200 mg/kg), and their carotid arteries were cannulated using polyethylene tubing (Clay Adams, Parsippany, NJ, USA) for blood sampling. For intravenous administration, the rats were anesthetized with ketamine (200 mg/kg), and their jugular veins and carotid arteries were cannulated for drug administration and blood sampling, respectively. Rats were allowed to recover for 4–5 h after surgical procedures. The rats were not restrained during the experimental period and had free access to water and food.
Blood samples (110–220 μL) were collected via the carotid artery at times 0 (prior to drug administration), 1 (at the end of drug infusion), 5, 15, 30, 45, 60, 90, 120, 180, 240, 360, 480, and 600 min. […] To prevent blood clotting, 0.3 mL of heparinized 0.9% NaCl-injectable solution (20 IU/mL) was immediately injected into the carotid artery after each blood sampling. Urine samples were collected over 24 h; in addition, each metabolic cage was rinsed with 20 mL of distilled water 24 h after drug administration, and the rinses were combined with their corresponding 24-h urine samples. […] At 24-h, each rat was exsanguinated, followed by cervical dislocation. The abdomen of each rat was opened and the entire gastrointestinal tract, including its contents and feces, was removed, transferred to a beaker containing 50 mL methanol, and cut into small pieces using scissors.
Two microliters of hydrocortisone (5 mg/mL) and 40 μL of 20% ammonia solution were added to 100 μL aliquots of biological samples and vortex-mixed for 30 s using a vortex mixer. Each solution was extracted with 1.5 mL of ethyl acetate by centrifugation at 12,000 rpm for 5 min. The organic layer was collected and dried (Dry Thermobath, Eyela, Tokyo, Japan) under a gentle stream of nitrogen gas at 40 °C. The samples were reconstituted in 130 μL of 20% acetonitrile, and 50 μL of resuspended samples were analyzed by HPLC [12].
The mobile phase consisted of a 69.5:30.5 (v/v) mixture of 10 mM ammonium acetate buffer (pH 5.0) and acetonitrile, respectively, with a flow rate of 1.0 mL/min. Column effluent was monitored by a UV detector at 287 nm.
(§1) Pharmacokinetic parameters, including AUC, apparent volume of distribution at steady state (Vss), mean residence time (MRT), and time-averaged total body (CL), renal (CLR), and nonrenal (CLNR) clearances, were calculated by noncompartmental analysis (WinNonlin, Pharsight Corporation, Mountain View, CA, USA) using standard methods. AUC values were calculated using the trapezoidal rule–extrapolation method. The peak plasma concentration (Cmax) and time to reach Cmax (Tmax) were obtained directly from the experimental data. The mean values of clearance, terminal half-life, and Vss were calculated using the harmonic mean method.

[2] = Tissue distribution after intravenous administration in rats; format: in vivo; conditions: Sprague-Dawley, rat; every tissue except brain, mesentery and fat; 30 min and 2 h after iv 10 mg/kg; read-out: Tissue-to-plasma (T/P) ratio
Method: Rats were handled and processed as described previously [10]. […] After 30 min and 2 h (n = 4 each), as much blood as possible was collected from the carotid artery. Blood samples were immediately centrifuged, and plasma was collected. The rats were sacrificed by cervical dislocation, approximately 1 g of each brain, fat, heart, kidney, large intestine, liver, lung, mesentery, muscle, small intestine, spleen, and stomach was removed, rinsed with phosphate-buffered solution (pH 7.4), and blotted dry with paper towels to remove any remaining blood. Each tissue sample was added to four volumes of homogenizing buffer, homogenized using a tissue homogenizer (T25 Ultra-Turrax, IKA Labortechnik, Staufen, Germany) and centrifuged at 8000 × g for 10 min.

[3] = humans, cited from earlier work
[4] = Biliary excretion after intravenous infusion in rats; format: in vivo, Sprague-Dawley rats; conditions: 1-min iv infusion 10 mg/kg, 0–24 h bile, n = 3
Method: The jugular vein of each rat was cannulated. The abdomen was opened and the bile duct was cannulated with polyethylene tubing. The incision was closed with surgical sutures and each rat was kept warm under an electric light. Each rat was maintained in the supine position during the entire experiment. […] Bile samples were collected over various time periods, from 0–1, 1–2, 2–4, 4–6, and 6–24 h.

[5] = Gastric and intestinal first-pass effect: intraportal infusion, intraduodenal and intragastric instillation in rats; format: in vivo, Sprague-Dawley rats
Method: Rats were fasted overnight with free access to water. Cannulae were inserted into the carotid artery and the cecal vein [13, 14]. […] All sample collection and processing procedures were identical to those described above.
as §1

[6] = Human pharmacokinetics of tofacitinib (literature); format: in vivo; conditions: humans; 100–74%
[7] = 30-min intraportal infusion, 10 mg/kg (n = 6)
[8] = Sprague-Dawley, rat, plasma, 10 mg/kg, 30-min intraportal infusion, 10 mg/kg (n = 6)
[9] = Sprague-Dawley, rat, plasma, 10 mg/kg, intraduodenal instillation
[10] = Sprague-Dawley, rat, plasma, po, 10 mg/kg, intragastric instillation
[11] = Sprague-Dawley, rat, plasma, 30-min intraportal infusion, 10 mg/kg (n = 6)

clearance ([1]; plasma, iv 50 mg/kg): 14.5 ± 2.33 mL/min/kg
Ae0–24 h ([1]; all intravenous doses): less than 11.0%
Slope of plot of AUC versus dose ([1]; intravenous, dose and AUC ratios based on 5 mg/kg): 2.74
CLR slower at 50 mg/kg than at 5 mg/kg ([1]; iv): 69%
CLR slower at 50 mg/kg than at 10 mg/kg ([1]; iv): 71%
CLR slower at 50 mg/kg than at 20 mg/kg ([1]; iv): 71%
Ae0–24 h (excreted unchanged in 24-h urine) ([1]; iv 5 mg/kg): 7.62 ± 5.08 % of dose
CLNR ([1]; iv 5 mg/kg): 32.9 ± 7.72 mL/min/kg
Dose-normalized AUC ([1]; iv 5 mg/kg): 282 µg·min/mL and 282 ± 46.0 µg·min/mL
Ae0–24 h (excreted unchanged in 24-h urine) ([1]; iv 10 mg/kg): 9.40 ± 5.06 % of dose
CLNR ([1]; iv 10 mg/kg): 26.3 ± 2.16 mL/min/kg
Dose-normalized AUC ([1]; iv 10 mg/kg): 342 µg·min/mL and 342 ± 33.1 µg·min/mL
Ae0–24 h (excreted unchanged in 24-h urine) ([1]; iv 20 mg/kg): 11.0 ± 3.72 % of dose
CLNR ([1]; iv 20 mg/kg): 22.6 ± 3.90 mL/min/kg
Dose-normalized AUC ([1]; iv 20 mg/kg): 404 µg·min/mL and 404 ± 73.0 µg·min/mL
Ae0–24 h (excreted unchanged in 24-h urine) ([1]; iv 50 mg/kg): 5.55 ± 3.91 % of dose
CLNR ([1]; iv 50 mg/kg): 13.7 ± 2.12 mL/min/kg
Dose-normalized AUC ([1]; iv 50 mg/kg): 705 µg·min/mL and 705 ± 114 µg·min/mL
CL renal ([1]; male, plasma, iv 5 mg/kg): 2.69 ± 1.7 mL/min/kg
MRT ([1]; male, plasma, iv 5 mg/kg): 35.2 min
clearance ([1]; male, plasma, iv 5 mg/kg): 36.3 ± 6.02 mL/min/kg
half-life ([1]; male, plasma, iv 5 mg/kg): 38.2 ± 11.7 min
Vd ([1]; male, plasma, iv 5 mg/kg): 1.26 ± 0.46 L/kg
CL renal ([1]; male, plasma, iv 10 mg/kg): 2.8 ± 1.69 mL/min/kg
MRT ([1]; male, plasma, iv 10 mg/kg): 41.1 min
clearance ([1]; male, plasma, iv 10 mg/kg): 29.5 ± 2.99 mL/min/kg
half-life ([1]; male, plasma, iv 10 mg/kg): 41.6 ± 7.86 min
Vd ([1]; male, plasma, iv 10 mg/kg): 1.21 ± 0.579 L/kg
CL renal ([1]; male, plasma, iv 20 mg/kg): 2.8 ± 1.17 mL/min/kg
MRT ([1]; male, plasma, iv 20 mg/kg): 35.5 min
clearance ([1]; male, plasma, iv 20 mg/kg): 25.4 ± 4.26 mL/min/kg
half-life ([1]; male, plasma, iv 20 mg/kg): 48.1 ± 5.56 min
Vd ([1]; male, plasma, iv 20 mg/kg): 0.9 ± 0.218 L/kg
CL renal ([1]; male, plasma, iv 50 mg/kg): 0.824 ± 0.651 mL/min/kg
MRT ([1]; male, plasma, iv 50 mg/kg): 105 min
half-life ([1]; male, plasma, iv 50 mg/kg): 97.8 ± 19.2 min
Vd ([1]; male, plasma, iv 50 mg/kg): 1.49 ± 0.134 L/kg
clearance ([1]; male, range over intravenous doses, based on plasma data): 14.5 to 36.3 mL/min/kg
AUC ([1]; plasma, 5 mg/kg): 2350 ng·h/mL
AUC ([1]; plasma, 10 mg/kg): 5700 ng·h/mL
AUC ([1]; plasma, 20 mg/kg): 13500 ng·h/mL
AUC ([1]; plasma, 50 mg/kg): 58800 ng·h/mL
Kp [2]: > 1
Excreted in bile [4]: 0.703 ± 0.303 % of the intravenous dose
AUC after intraduodenal instillation as % of that after intraportal administration ([5]; 10 mg/kg): 50.7%
Ae0–24 h [5, 7]: 5.82 ± 2.32 % of dose
CLNR [5, 7]: 38.3 ± 6.16 mL/min/kg
Oral dose absorbed into the systemic circulation ([5]; 50.7–21.3%, 10 mg/kg): 29.4%
CL renal [5, 8]: 2.44 ± 1.23 mL/min/kg
Cmax [5, 8]: 5180 ± 586 ng/mL
Tmax [5, 8]: 27.5 min
AUC ([5]; Sprague-Dawley, rat, plasma, 10 mg/kg, 30-min intraportal infusion, 10 mg/kg (n = 6), fasted): 4530 ng·h/mL
AUC [5, 9]: 2300 ng·h/mL
CL renal [5, 9]: 5.72 ± 2.62 mL/min/kg
Cmax [5, 9]: 1550 ± 1930 ng/mL
Tmax [5, 9]: 38.8 min
AUC [5, 10]: 2230 ng·h/mL
CL renal [5, 10]: 7.08 ± 2.91 mL/min/kg
Cmax [5, 10]: 716 ± 255 ng/mL
Tmax [5, 10]: 63.8 min
MRT [5, 11]: 53 min
clearance [5, 11]: 38.4 ± 8.47 mL/min/kg
half-life ([5]; Sprague-Dawley, rat, plasma, 30-min intraportal infusion, 10 mg/kg (n = 6), read-out: Terminal half-life): 44.8 ± 14.2 min
Vd ([5]; Sprague-Dawley, rat, plasma, 30-min intraportal infusion, 10 mg/kg (n = 6), read-out: Vss): 1.9 ± 0.369 L/kg
Ae0–24 h ([5]; intraduodenal instillation, 10 mg/kg): 8.30 ± 5.10 % of dose
Ae0–24 h ([5]; intragastric instillation, 10 mg/kg): 8.90 ± 3.00 % of dose
Oral dose presumed first-pass metabolized in the intestine and the liver [6]: 26%
Structure (SMILES): C[C@@H]1CCN(C(=O)CC#N)C[C@@H]1N(C)c1ncnc2[nH]ccc12 [tofacitinib, 3-[(3R,4R)-4-methyl-3-[methyl-(7H-pyrrolo[2,3-day]pyrimidin-4-l)amino]piperidin-1-yl]-3-oxopropanenitril]
Terminal half-life [3]: 192 min
Volume of distribution [3]: 87 L
Bound to plasma proteins ([3]; oral): 40%
